From PMC11656708, “PHP-Family Diesterase from Novosphingobium with Broad Specificity and High Catalytic Efficiency against Organophosphate Flame-Retardant Derived Diesters” (Biochemistry, 2024)
Read-outs that look alike come from different tables or passages of the source.

Legend:
No-PDE [1] = test system: T1, No-PDE; assay: steady-state kinetics; assay type: biochemical, Novosphingobium sp. EMRT-2
T1 construct: synthetic gene, recombinant, purified to homogeneity; trinuclear zinc site
Text: steady-state kinetics on No-PDE

Sb-PDE [2] = test system: T2, Sb-PDE; assay type: biochemical, Sphingobium sp. TCM1
T2 construct: synthetic gene, recombinant, purified to homogeneity; trinuclear zinc site
Text: steady-state kinetics on Sb-PDE

Sb-PDE [3] = test system: T2, Sb-PDE; assay: UV/vis Michaelis-Menten kinetics; assay type: biochemical, Sphingobium sp. TCM1
Text: UV/vis Michaelis-Menten kinetics on Sb-PDE

No-PDE [4] = test system: T1, No-PDE; assay: UV/vis Michaelis-Menten kinetics; assay type: biochemical, Novosphingobium sp. EMRT-2
Text: UV/vis Michaelis-Menten kinetics on No-PDE

| Compound | Km (No-PDE [1]) | Km (Sb-PDE [2]) | Km (Sb-PDE [3]) | Km (No-PDE [4]) |
| --- | --- | --- | --- | --- |
| O=[N+]([O-])c1ccc(OP(=O)(O)O)cc1 [compound 11, p-nitrophenyl phosphate] | 1400 µM | 140 µM | – | – |
| O=[N+]([O-])c1ccc(OP(=O)(O)Oc2ccc([N+](=O)[O-])cc2)cc1 [compound 1, bis-p-nitrophenyl phosphate] | – | – | 140 µM | 620 µM |
| O=P(O)(Oc1ccccc1)Oc1ccccc1 [compound 2, diphenyl phosphate] | – | – | 900 µM | 2300 µM |
| O=P(O)(O)Oc1ccccc1 [compound 12, phenyl phosphate] | – | 1400 µM | – | – |
